Patent US20060153785A1, “Moisturizers comprising one or more of gamma-polyglutamic acid (gamma-PGA, H form), gamma-polyglutamates and gamma-polyglutamate hydrogels for use in cosmetic or personal care products” (priority 2005, published 2006)

Experiments:
[1] = test system: outside skin surface of the arm of a test panelist; assay: Moisture retention of skin after peeling off facial moisture mask (capacitance, SHP88); format: in vivo, human (panelists); details: 5.0% moisturizer in facial moisture mask; mask film peeled off after 15 minutes; 23° C., RH 65%
Description: The species and proportions of the ingredients contained in the exemplified facial moisture mask formulation are listed in Table 5.
The samples of 0.2 grams from experimental example 4 were taken and evenly spread over an area of 25 cm^2 on the outside skin surface of the arm of a test panelist, and the film formation time was closely observed and recorded (see Characteristic Properties of N-Carboxybutyl Chitosan. Carbohydr. Polym. 11:307-320, 1989, Muzzarelli, R. A. A. et al.) at 23° C. under an environment of relative humidity (RH) of 65%. A group of 10 panelists participated in this test. In a separate experiment, the mask film formed after 15 minutes was peeled off, then the […] of the skin was measured at 23° C. under an environment of relative humidity of 65% with a probe of the Skin Analysis SHP88 of Courage ^+Khazaka Electronic Gmbh, Germany. The moisture retention of the skin was immediately measured at 23° C. under an environment of relative humidity of 65% with a probe of the Skin Analysis SHP88, and expressed in unit of capacitance increase ratio, %.

[2] = test system: tyrosinase; assay: Inhibition of tyrosinase activity (absorbency at 475 nm); format: biochemical; details: 1.0% sample
Description: Although the formation of black pigment melanin on skin is complicated, it is generally realized that tyrosine is oxidized to DOPA (Dihydroxy Phenyalanine) by the catalysis of tyrosinase from melansome of melanocyte. The DOPA is further oxidized and finally converted into colored melanin-protein complex. […] Determination of total absorbency at wavelength of 475 nm: To a 25 ml sample test tube, add 0.9 ml of 0.1M phosphate buffer solution (pH 6.8), 1 ml of γ-polyglutamate (Na^+ form) sample and 1 ml of 0.25 mg/ml tyrosine solution and mix well, then incubate at 37° C. for 10 minutes. […] Sample of the reaction solution is then taken for measuring the absorbency at 475 nm, and recorded as At. • b. Determination of the blank absorbance of tyrosinase solutuion: Replace 0.1 ml of buffer solution with tyrosinase solution, and repeat the same procedure in item (a), and record the absorbency at 475 nm as A1. • c. Replace 1 ml sample solution with buffer solution, and repeat the same procedure in item (a), and record the absorbance at 475 nm as Ab. • d. Determination of total blank absorbance of test solution: Replace 1 ml sample solution with buffer solution, and 0.1 ml of tyrosinase solution with buffer solution, and repeat the procedure in item (a), and record the absorbency at 475 nm as Ao. • e. […]

[3] = test system: inside skin surface of a test panelist's arm; assay: Water retention on skin after skin vital moisture cream (capacitance, Skin Analysis SHP88); format: in vivo, human (panelists); details: 5% moisturizer in cream

Compound: CC(O)CCO (stereo not shown) [1,3-BG, 1,3-Butyl Glycol]
- Capacitance Increase Ratio [1]: 73.2%

Compound: O=c1cc(CO)occ1O [Kojic Acid]
- Inhibition of Tyrosinase Activity [2]: 100.0%

Compound: CC(O)CO (stereo not shown) [Propylene Glycol]
- Capacitance Increase Ratio ([3]; time 0 min): 0%
- Capacitance Increase Ratio ([3]; time 5 min): 105%
- Capacitance Increase Ratio ([3]; time 10 min): 57%
- Capacitance Increase Ratio ([3]; time 20 min): 51%
- Capacitance Increase Ratio ([3]; time 40 min): 40%
- Capacitance Increase Ratio ([3]; time 80 min): 38%
- Capacitance Increase Ratio ([3]; time 120 min): 36%

Compound: O=C1O[C@H]([C@@H](O)CO)C(O)=C1O [Vitamin C]
- Inhibition of Tyrosinase Activity [2]: 99.4%
